This note sets out measurements from ChEMBL document CHEMBL1201862, “PubChem BioAssay data set” (2004).

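Values below derive from 48-hour exposures of cells grown in 96-well plates, with endpoints linearly interpolated between the two concentrations bracketing the appropriate inhibition level. GI50 = concentration required for 50% inhibition of growth.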 Activity calls are given as the source filed them. Cut-off read from the data, not from the text of the source: active = GI50 up to about 1.1 µM and inactive = higher. A value given as a limit tells only on which side of the number the result lay.

Among the test systems are 786-0; BT-549; OVCAR-8; TK-10; LOX IMVI; Malme-3M; SF-295; SK-MEL-28; SW-620; RPMI-8226; MDA-MB-231; K562; NCI-H460; MCF7; HOP-92; OVCAR-4; OVCAR-5; OVCAR-3; SNB-75.
Holding throughout (assay): NCI-60 cell line screen, 48 h

For the molecule `O=C(/C=C1\Sc2ccccc2N=C1CC(=O)c1ccccc1)c1ccccc1`, the GI50 is 3.51 µM (inactive) with 786-0; 8.13 µM (inactive) with BT-549; 3.67 µM (inactive) in the assay with OVCAR-8; 5.73 µM (inactive) in the assay with TK-10; 3 µM (inactive) in the assay with LOX IMVI; 3.25 µM (inactive) in the assay with Malme-3M. The GI50 with SF-295 was 3.64 µM (inactive); with SK-MEL-28, 8.89 µM (inactive); with SW-620, 3.97 µM (inactive); in the assay with RPMI-8226 it was 4.65 µM (inactive); in the assay on MDA-MB-231 it was 6 µM (inactive); in the assay on K562, 3.79 µM (inactive). Moreover, the GI50 was 3.89 µM (inactive) with NCI-H460; 4.19 µM (inactive) with MCF7; 3.35 µM (inactive) with HOP-92; 4.99 µM (inactive) in the assay with OVCAR-4; 12.8 µM (inactive) with OVCAR-5; 10.7 µM (inactive) in the assay with OVCAR-3.
On to `CC(C)(C)n1c(=O)n(-c2ccccc2)n(C(C)(C)C)c1=O`, for which the GI50 in the assay with 786-0 was > 100 µM (inactive); in the assay with BT-549, > 100 µM (inactive); in the assay with OVCAR-8, > 100 µM (inactive); in the assay on TK-10 it was > 100 µM (inactive); with SNB-75 it was 63.1 µM (inactive); with LOX IMVI, > 100 µM (inactive). The GI50 with Malme-3M, in the assay on SF-295, in the assay on SK-MEL-28, in the assay on SW-620, in the assay on MDA-MB-231 and with K562 was > 100 µM (inactive) each time. Also, the GI50 with NCI-H460, in the assay on MCF7, in the assay with HOP-92, with OVCAR-4, with OVCAR-5 and in the assay on OVCAR-3 was > 100 µM (inactive) throughout.
As for `C1CSCCCSCCCSCCCSCCCSCCCSCCCSCCCSC1`, the GI50 in the assay on 786-0, in the assay with BT-549, in the assay on OVCAR-8, in the assay on TK-10, in the assay on LOX IMVI and in the assay with Malme-3M was > 100 µM (inactive) in each case. The GI50 in the assay on SF-295, with SK-MEL-28, in the assay with SW-620, in the assay with RPMI-8226, in the assay on MDA-MB-231 and in the assay on K562 was > 100 µM (inactive) each time. Besides, the GI50 with NCI-H460, with MCF7, in the assay on HOP-92, in the assay on OVCAR-4, with OVCAR-5 and with OVCAR-3 was > 100 µM (inactive) throughout.
On to `CSc1cc(-c2cccs2)sc1-c1cc(SC)c(-c2sc(-c3sc(-c4cccs4)cc3SC)cc2SC)s1`, for which the GI50 with 786-0, in the assay with BT-549, in the assay with OVCAR-8, with TK-10, in the assay with LOX IMVI and in the assay on Malme-3M was > 100 µM (inactive) throughout. Further, the GI50 with SF-295, in the assay on SK-MEL-28, in the assay with SW-620, in the assay on RPMI-8226, in the assay on MDA-MB-231 and with K562 was > 100 µM (inactive) each time. Besides, the GI50 in the assay on NCI-H460 is > 100 µM (inactive); in the assay with MCF7, > 100 µM (inactive); in the assay with HOP-92 it was > 100 µM (inactive); in the assay with OVCAR-4, > 100 µM (inactive); with OVCAR-5 it was 30.6 µM (inactive); in the assay on OVCAR-3 it was > 100 µM (inactive).
`c1ccc(-c2cc(-c3cccs3)c(-c3cccs3)o2)cc1`: the GI50 in the assay with 786-0, in the assay with BT-549, with OVCAR-8, in the assay with TK-10, in the assay with SNB-75 and in the assay with LOX IMVI was > 100 µM (inactive) in each case. In addition, the GI50 with SF-295, in the assay with SK-MEL-28, in the assay on SW-620, with RPMI-8226, in the assay on MDA-MB-231 and with K562 was > 100 µM (inactive) throughout. The GI50 with NCI-H460 was > 100 µM (inactive); in the assay on MCF7 it was 32.2 µM (inactive); in the assay with HOP-92, > 100 µM (inactive); with OVCAR-4, > 100 µM (inactive); in the assay on OVCAR-5 it was > 100 µM (inactive); with OVCAR-3, 61.1 µM (inactive).
Consider `COC(=O)[C@@H]1O[C@]12C(CO[Si](C)(C)C(C)(C)C)OC(n1ccc(=O)[nH]c1=O)C2O[Si](C)(C)C(C)(C)C` (stereo partly specified), for which the GI50 in the assay with 786-0 was 20.6 µM (inactive); with BT-549, 17.5 µM (inactive); in the assay on OVCAR-8, 30.9 µM (inactive); with TK-10, 27.1 µM (inactive); in the assay with SNB-75, > 100 µM (inactive); with LOX IMVI it was 14.8 µM (inactive). The GI50 was 21.8 µM (inactive) in the assay with SF-295; 25.5 µM (inactive) with SK-MEL-28; 26.1 µM (inactive) in the assay on SW-620; 8.85 µM (inactive) in the assay with RPMI-8226; 28.2 µM (inactive) with MDA-MB-231; 25.5 µM (inactive) in the assay on K562. Further, the GI50 is 15.5 µM (inactive) in the assay on NCI-H460; 12.4 µM (inactive) with MCF7; 27.4 µM (inactive) in the assay on HOP-92; 45.7 µM (inactive) with OVCAR-4; 25.1 µM (inactive) with OVCAR-5; 16.7 µM (inactive) with OVCAR-3.
`COC(=O)c1cc(-c2ccc(-c3ccc(O)cc3)cc2)cc(-c2ccc(-c3ccc(O)cc3)cc2)c1`: the GI50 is 5.98 µM (inactive) in the assay with 786-0; 13.7 µM (inactive) in the assay on BT-549; 13.6 µM (inactive) in the assay with TK-10; 7.74 µM (inactive) in the assay on SNB-75; 6.14 µM (inactive) with LOX IMVI; 6.75 µM (inactive) with SF-295. Further, the GI50 with SK-MEL-28 was 13 µM (inactive); with SW-620, 7.11 µM (inactive); with RPMI-8226, 10.7 µM (inactive); with MDA-MB-231, 17.9 µM (inactive); with K562, 4.51 µM (inactive); with NCI-H460, 17.8 µM (inactive). The GI50 with MCF7 is 4.48 µM (inactive); in the assay with HOP-92, 6.62 µM (inactive); in the assay with OVCAR-4 it was 13.5 µM (inactive); in the assay on OVCAR-5 it was 15.7 µM (inactive); with OVCAR-3 it was 12 µM (inactive).
As to `CC1=C(C(N)=O)C(c2ccncc2)C(C#N)=C2SCC(=O)N12` (stereo unspecified), the GI50 in the assay on 786-0, in the assay with BT-549, with OVCAR-8, in the assay on SNB-75, with Malme-3M and in the assay with SF-295 was > 100 µM (inactive) each time. The GI50 in the assay on SK-MEL-28, in the assay with SW-620, with RPMI-8226, in the assay on MDA-MB-231, in the assay on K562 and with NCI-H460 was > 100 µM (inactive) each time. Besides, the GI50 in the assay with MCF7, in the assay with HOP-92, with OVCAR-4, in the assay with OVCAR-5 and in the assay on OVCAR-3 was > 100 µM (inactive) each time.
Consider `CCOC(=O)c1c[nH]cc1-c1cn(S(=O)(=O)c2ccccc2)cc1C`, for which the GI50 in the assay on 786-0 is 37.1 µM (inactive); in the assay on BT-549 it was 27.1 µM (inactive); with OVCAR-8, 28.7 µM (inactive); in the assay on TK-10, 35.6 µM (inactive); in the assay on SNB-75, 15.3 µM (inactive); in the assay on LOX IMVI, 23.4 µM (inactive). The GI50 in the assay with Malme-3M was 15 µM (inactive); in the assay on SF-295, 33.7 µM (inactive); with SK-MEL-28, 19.8 µM (inactive); in the assay on SW-620, > 10 µM (inactive); with MDA-MB-231 it was 20.5 µM (inactive); in the assay with K562 it was 19.1 µM (inactive). Moreover, the GI50 with NCI-H460 was 18.4 µM (inactive); with MCF7, 29 µM (inactive); with HOP-92 it was 26 µM (inactive); with OVCAR-4, 39.4 µM (inactive); in the assay on OVCAR-5 it was 52.7 µM (inactive); in the assay on OVCAR-3, 18.8 µM (inactive).
Take `O=C(N/N=C/c1ccc2c(c1)OCO2)Nc1ccccc1Cl`: the GI50 is 3.69 µM (inactive) with 786-0; 1.85 µM (inactive) with BT-549; 2.56 µM (inactive) in the assay with OVCAR-8; 2.15 µM (inactive) in the assay with TK-10; 2.95 µM (inactive) in the assay on LOX IMVI; 0.946 µM (active) in the assay with Malme-3M. For the same molecule, the GI50 in the assay on SF-295 is 0.47 µM (active); in the assay on SK-MEL-28, 9.95 µM (inactive); in the assay on SW-620, 0.708 µM (active); in the assay with RPMI-8226, 1.48 µM (inactive); in the assay on MDA-MB-231, 4.7 µM (inactive); in the assay with K562, 0.327 µM (active). Further, the GI50 in the assay with NCI-H460 was 0.65 µM (active); in the assay with MCF7 it was 0.469 µM (active); in the assay on HOP-92, 6.24 µM (inactive); in the assay with OVCAR-4, 10 µM (inactive); in the assay with OVCAR-5, 8 µM (inactive); in the assay with OVCAR-3 it was 0.391 µM (active).
Regarding `CCCCCCc1cc2cc(-c3cn4ccsc4n3)c(=O)oc2cc1O`, the GI50 in the assay with 786-0 was > 56.9 µM (inactive); in the assay with BT-549, > 100 µM (inactive); in the assay with OVCAR-8 it was > 53.3 µM (inactive); in the assay on TK-10, > 95.3 µM (inactive); with SNB-75, 8.15 µM (inactive); in the assay on LOX IMVI, > 100 µM (inactive). The GI50 in the assay on SF-295 was > 100 µM (inactive); in the assay with SK-MEL-28, > 25.4 µM (inactive); with SW-620 it was > 79.6 µM (inactive); in the assay with RPMI-8226 it was 98.9 µM (inactive); with MDA-MB-231 it was > 75 µM (inactive); in the assay on K562 it was > 75.2 µM (inactive). Moreover, the GI50 in the assay with NCI-H460 is > 100 µM (inactive); in the assay with MCF7 it was 99.5 µM (inactive); in the assay on HOP-92, > 100 µM (inactive); in the assay on OVCAR-4, > 79.6 µM (inactive); in the assay with OVCAR-5, > 100 µM (inactive); in the assay on OVCAR-3, > 77.1 µM (inactive).
